Tests used:
[1] = target: T1, PD-L1 (Homo sapiens, UniProt Q9NZQ7); test: Isothermal titration calorimetry (ITC), binding to PD-L1; details: 25 °C, PBS pH 7.4, peptide 500 μM in syringe, protein 2.5 μM in cell, 20 injections of 2 μL
Description: (§1) Experiments were conducted at 25 °C on a MicroCal iTC200 isothermal titration calorimeter (GE Healthcare) in PBS buffer (pH 7.4). The titration syringe was loaded with peptide a or scrambled peptide prepared at 500 μM, while the sample chamber contained PD-L1 or HSC70 protein at 2.5 μM. The titration consisted of 20 successive injections of 2 μL each, with an equilibration interval of 120 seconds between injections. The average baseline value was calculated from data points obtained under saturation conditions. Following baseline correction, binding constants were determined using the fitting models provided in MicroCal Origin software.
Target sequence in this assay (Q9NZQ7 19-290, species assumed): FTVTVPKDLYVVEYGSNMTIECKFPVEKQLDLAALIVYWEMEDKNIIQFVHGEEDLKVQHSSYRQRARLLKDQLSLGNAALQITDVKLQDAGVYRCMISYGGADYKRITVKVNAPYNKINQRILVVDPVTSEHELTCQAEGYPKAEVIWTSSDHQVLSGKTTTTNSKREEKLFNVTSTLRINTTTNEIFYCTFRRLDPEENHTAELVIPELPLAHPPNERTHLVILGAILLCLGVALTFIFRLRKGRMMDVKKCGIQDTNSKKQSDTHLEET

[2] = target: T2, HSC70 (Homo sapiens, UniProt P11142); test: Isothermal titration calorimetry (ITC), binding to HSC70; details: 25 °C, PBS pH 7.4, peptide 500 μM in syringe, protein 2.5 μM in cell, 20 injections of 2 μL
Description: as §1
Target sequence in this assay (P11142 whole entry, species assumed): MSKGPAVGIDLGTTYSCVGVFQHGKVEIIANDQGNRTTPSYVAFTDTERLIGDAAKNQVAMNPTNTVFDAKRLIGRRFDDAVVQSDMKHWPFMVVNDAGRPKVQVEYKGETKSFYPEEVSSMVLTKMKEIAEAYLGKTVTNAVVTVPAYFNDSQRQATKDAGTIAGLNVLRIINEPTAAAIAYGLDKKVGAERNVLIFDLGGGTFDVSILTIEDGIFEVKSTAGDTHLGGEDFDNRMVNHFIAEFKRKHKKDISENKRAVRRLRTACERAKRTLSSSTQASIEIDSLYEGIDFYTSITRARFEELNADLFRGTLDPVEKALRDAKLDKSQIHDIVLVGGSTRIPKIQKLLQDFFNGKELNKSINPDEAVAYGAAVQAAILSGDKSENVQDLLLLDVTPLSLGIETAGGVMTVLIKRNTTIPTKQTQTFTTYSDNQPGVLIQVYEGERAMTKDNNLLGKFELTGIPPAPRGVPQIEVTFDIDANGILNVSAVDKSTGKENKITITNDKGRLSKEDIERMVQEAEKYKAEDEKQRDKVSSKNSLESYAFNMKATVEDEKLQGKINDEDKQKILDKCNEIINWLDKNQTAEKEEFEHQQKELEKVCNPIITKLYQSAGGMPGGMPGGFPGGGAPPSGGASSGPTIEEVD

[3] = target: T2, HSC70; test: ITC; MicroCal iTC200, 25 °C, PBS pH 7.4; peptide at 500 μM in the syringe, PD-L1 or HSC70 at 2.5 μM in the sample chamber; 20 injections of 2 μL
Target sequence in this assay (P11142 whole entry): as the sequence (P11142 whole entry, species assumed) above

[4] = target: T1, PD-L1; test: as above
Target sequence in this assay (Q9NZQ7 19-290): as the sequence (Q9NZQ7 19-290, species assumed) above

Row | Substance | Kd, binding to PD-L1 [1] | Kd, binding to HSC70 [2] | Kd [3] [nM] | Kd [4] [nM]
1 | fhyqrdtpksyn-PEG3-QREFKC [mutant peptide with scrambled sequences] | no detectable binding | no detectable binding | – | –
2 | bifunctional peptide a (CKFERQ-PEG3-nyskptdrqyhf) | – | – | 1280 | 410
